Measurements as given in patent publication US10562857B2 (AFASCI, Inc., priority 2015, dated 2020).
“Also recorded” adds a separate entry of the source. Like-named read-outs stand apart in the source and are kept apart here.

Key:
[1] = tested on: incision-induced pain in mice; assay: Incision-induced acute pain in mice, von Frey test; assay type: in vivo, mouse; settings: 30 mg/kg I.P.
Procedure: FIG. 9. Effects of EXAMPLE-116, -118 or ML218 (a reference compound) on incision-induced acute pain in mice (C57BL/6, male, ˜2 months old; n=8 mice per treatment group). Mechanical pain threshold assessment (von Frey monofilament test) of the mice's incision left hindpaws. Each mouse received either EXAMPLE-116, -118, or ML218 (as a reference compound, each 30 mg/kg, I.P.) or vehicle (2% DMSO in 0.5% HPC, I.P.). Mechanical pain responses were measured at 0.5, 1, 2, 4, and 5 hours after treatment.
To further confirm the Cav3 modulator effects on acute pain and neurogenic inflammatory pain, an incision-pain mode in mice was used. Postoperative pain model induced by a deep incision in the hindpaw produces robust mechanical allodynia (Pogatzki et al., 2003). Mechanical pain thresholds were assessed using von Frey monofilament test of the incised left hindpaws. Each mouse received either EXAMPLE-116, -118, ML218 (as a reference compound, each 30 mg/kg, I.P.) or vehicle (2% DMSO in 0.5% HPC, I.P., n=8 mice per treatment group). Mechanical pain responses were measured at 0.5, 1, 2, 4, and 5 hours after treatment.

SNI rats = assay: Spared nerve injury (SNI) rats, von Frey monofilament test; assay type: in vivo, rat; settings: pain in rats, 30 mg/kg, P.O.
[2] = Plasma protein binding, human; assay type: in vitro ADME; settings: for fraction unbound: read-out: PPB % (Human) (converted)
Source text: (§1) In vitro data of metabolic stability and protein binding as well as in vivo pharmacokinetic data for compounds of the invention can be generated using the techniques disclosed in, e.g., Obach, R. S. et al., J. Pharmacol. Exp. Ther. 283(1): 46-58 (1997), which is hereby incorporated by reference in its entirety. Various biological, pharmacokinetic and other properties of the compounds, including hepatic microsomal stability, determination of metabolites, binding to proteins such as plasma protein binding, and in vivo studies, including single-dose and multi-dose pharmacokinetic studies, can be determined using the protocols described in that publication and the publications cited therein. Other aspects and advantages of the present invention will become apparent from the above detailed description, as illustrated by way of example of the principles of the invention. The scope of the invention is to be defined by the claims appended hereto and their equivalents. Selected pharmacokinetic studies in vitro and in vivo in rats were performed for preferred compounds, for example EXAMPLE-128 and compared with two reference compounds ML218 and Z944 by a contract research organization (BioDuro, Inc., San Diego, US). Tables 3A and 3B summarize some of the in vitro and vivo pharmacodynamic and pharmacokinetic parameters, respectively.

[3] = Metabolic stability in human liver microsomes; assay type: in vitro ADME
Source text: as §1

SNL rats = assay: Spinal nerve ligation (SNL) rats, von Frey monofilament test; assay type: in vivo, rat; settings: for order of analgesic efficacy against allodynia: each 30 mg/kg P.O.; for SNL Model Mechanical % of baseline: pain in rats, 30 mg/kg, P.O.
Procedure: FIG. 5A. Mechanical pain threshold assessment (von Frey monofilament test) of spinal nerve ligation (SNL) rats' left hindpaws. Each SNL rat received either EXAMPLE-128, at 3, 10 or 30 mg/kg (2 mL oral gavage, P.O.), or vehicle (2 mL 2% DMSO in 0.5% HPC, P.O.). […] Mechanical pain responses were measured at 1, 2, 4 and 6 hours after treatment (n=8 rats per treatment group).
FIG. 5B. Mechanical pain threshold assessment (von Frey monofilament test) of SNL rats' left hindpaws. In the same cohort of animals, each SNL rat received either EXAMPLE-128, -130, Z944 (as a reference compound, each at 30 mg/kg, 2 mL oral gavage, P.O.), or vehicle (2 mL 2% DMSO in 0.5% HPC, P.O.). The degree of analgesia against allodynia in the order of EXAMPLE-128>Z944>EXAMPLE-130 compared to the […] group. Mechanical pain responses were measured at 1, 2, 4 and 6 hours after treatment (n=8 rats per treatment group).
The spinal nerve ligation (SNL) in rats is another commonly used neuropathic pain model (Kim & Chung, 1992). The analgesic effect of the selected EXAMPLE-128 was tested in this model. Baseline mechanical thresholds on the rats' left hindpaws of male rats (Sprague-Dawley rats, 300 g-350 g, Harlan) were taken using von Frey hair monofilaments prior to surgery. Ligation of the L5 peripheral nerve was made on the left side under anesthesia. Total 32 rats underwent surgery (n=8 rats per treatment group). Ten days post-surgery, approximately 75-85(%) reduction in mechanical pain was observed, confirming the presence of mechanical allodynia in the SNL rats. Each rat received either EXAMPLE-128 (at 3, 10 and 30 mg/kg, each dose in […], P.O.), or vehicle (2% DMSO in 0.5% HPC, […], P.O.). Mechanical thresholds were measured at 1, 2, 4, and 6 hours post-treatment/dosing. […] The drug actions started around 1 hour post-injection and peaked between 1 and 2 hours, and the drug effects gradually declined to pre-treatment levels in 6 hours (FIG. 5A). After the drug had been eliminated, and the thresholds had returned to initial mechanical allodynia, a comparative test of EXAMPLE-128 and -130 vs Z944 (each at 30 mg/kg, P.O.) was conducted in the same cohort of SNL rats. The analgesic efficacy is in the order of EXAMPLE-128>Z944>EXAMPLE-130 (FIG. 5B).

[4] = tested on: formalin-induced inflammation in mice; assay: Formalin-induced pain in mice; assay type: in vivo, mouse; settings: 30 mg/kg I.P. 30 min before 10% formalin
Procedure: FIG. 8. Effects of EXAMPLE-128 (30 mg/kg, I.P.) or vehicle on formalin-induced inflammation in male mice (C57BL/6, ˜3 months old; n=8 mice per group). The test compound was I.P. administered 30 min prior to local injection of 10% formalin into the left hindpaw (10 μl). Time spent in grooming, licking or biting the injury paw was manually scored immediately following formalin injection in 5-min time bin for 45 min.
Formalin-induced biphasic response, nociception followed by inflammatory pain in a mouse hindpaw, is an acute pain and chemical-induced inflammatory pain model. The EXAMPLE-128 was tested in this model. Mice (C57BL/6, male, ˜2 months old; n=8 mice per treatment group) received a 10 μl intraplantar injection of 10% formalin in saline into the left hindpaw. Pain response scoring includes counts per episode of time of reactions to the pain stimulus as indicated by licks, twitches, raising or shaking of the injected paw.

[5] = read-out: Human Liver Microsomes Clint (μL/min/mg protein)
[6] = read-out: Human Liver Microsomes t1/2
[7] = SNL rats, 3, 10 and 30 mg/kg P.O.

Row | Structure (SMILES) | mechanical pain threshold, incision-induced pain [1] | SNI-Model Mechanical % of baseline (SNI rats) | recovery [2] | fraction unbound [2] | microsomal CLint [3, 5] | half-life [3, 6] | start of drug action post-injection (SNL rats; [7]) | time for drug effects to decline to pre-treatment levels (SNL rats; [7]) | mechanical pain threshold of left hindpaw (allodynia) (SNL rats; SNL rats, 3, 10 or 30 mg/kg P.O.) | order of analgesic efficacy against allodynia (SNL rats; SNL rats) | SNL Model Mechanical % of baseline (SNL rats) | formalin-induced biphasic pain response [4] | half-life [3] | microsomal CLint [3]
1 | CC(C)(C)CCN1C[C@@H]2[C@@H](CNC(=O)c3cc(Cl)cc(Cl)c3)[C@@H]2C1 [ML218, 3,5-Dichloro-N-[[(1α,5α,6-exo,6α)-3-(3,3-dimethylbutyl)-3-azabicyclo[3.1.0]hex-6-yl]methyl]benzamide, reference compound] | inhibited incision-induced inflammatory pain | 45 ± 11 % of baseline | 97.1% | 0.046 | 1.1 µL/min/mg | 10.5 h |  |  |  |  |  |  |  | 
2 | CC(C)(C)NC(=O)CN1CCC2(CC1)CC2NC(=O)c1cc(F)cc(Cl)c1 (single isomer, unassigned) [Example 128, (S)—N-(6-(2-(tert-Butylamino)-2-oxoethyl)-6-azaspiro[2.5]octan-1-yl)-3-chloro-5-fluorobenzamide or (R)—N-(6-(2-(tert-Butylamino)-2-oxoethyl)-6-azaspiro[2.5]octan-1-yl)-3-chloro-5-fluorobenzamide] |  | 45 ± 15 % of baseline | 98.3% | 0.043 |  |  | around 1 hour | 6 h | elevated mechanical thresholds in a dose-related manner; also recorded: reduced allodynia compared to the SNI-vehicle group in a dose-related manner | EXAMPLE-128>Z944>EXAMPLE-130 | 129 ± 28 % of baseline | produced inhibition of both phases | 6.08 h | 1.9 µL/min/mg
3 | CC(C)(C)NC(=O)CN1CCC2(CC1)C[C@H]2NC(=O)c1cc(F)cc(C(F)(F)F)c1 (single isomer, unassigned) [Example 130, (R)—N-(6-(2-(tert-Butylamino)-2-oxoethyl)-6-azaspiro[2.5]octan-1-yl)-3-fluoro-5-(trifluoromethyl)benzamide or (S)—N-(6-(2-(tert-Butylamino)-2-oxoethyl)-6-azaspiro[2.5]octan-1-yl)-3-fluoro-5-(trifluoromethyl)benzamide] |  |  |  |  |  |  |  |  |  | EXAMPLE-128>Z944>EXAMPLE-130 |  |  |  | 
4 | CC(C)(C)NC(=O)CN1CCC(CNC(=O)c2cc(F)cc(Cl)c2)CC1 [Z944, reference compound] |  | 28 ± 18 % of baseline | 93.6% | 0.064 | 5.5 µL/min/mg | 2.1 h |  |  |  | EXAMPLE-128>Z944>EXAMPLE-130 | 94 ± 38 % of baseline |  |  | 
